# Laboratory results from patent US20260265208A1, “TETRALINE, PHENYLCYCLOBUTANE AND PHENYLCYCLOPENTANE ANALOGS AS RXFP1 AGONISTS” (BRISTOL-MYERS SQUIBB COMPANY, priority 2021, published 2026).
# Assays:
# human RXFP1 = molecular target: T1, human RXFP1 (Homo sapiens, UniProt Q9HBX9); experiment: hRXFP1 HEK293 cAMP assay (HTRF); format: cell-based; conditions: HEK293 cells stably expressing human RXFP1
# T1 construct: expressed in transfected cells
# T1 sequence (Q9HBX9 1-757): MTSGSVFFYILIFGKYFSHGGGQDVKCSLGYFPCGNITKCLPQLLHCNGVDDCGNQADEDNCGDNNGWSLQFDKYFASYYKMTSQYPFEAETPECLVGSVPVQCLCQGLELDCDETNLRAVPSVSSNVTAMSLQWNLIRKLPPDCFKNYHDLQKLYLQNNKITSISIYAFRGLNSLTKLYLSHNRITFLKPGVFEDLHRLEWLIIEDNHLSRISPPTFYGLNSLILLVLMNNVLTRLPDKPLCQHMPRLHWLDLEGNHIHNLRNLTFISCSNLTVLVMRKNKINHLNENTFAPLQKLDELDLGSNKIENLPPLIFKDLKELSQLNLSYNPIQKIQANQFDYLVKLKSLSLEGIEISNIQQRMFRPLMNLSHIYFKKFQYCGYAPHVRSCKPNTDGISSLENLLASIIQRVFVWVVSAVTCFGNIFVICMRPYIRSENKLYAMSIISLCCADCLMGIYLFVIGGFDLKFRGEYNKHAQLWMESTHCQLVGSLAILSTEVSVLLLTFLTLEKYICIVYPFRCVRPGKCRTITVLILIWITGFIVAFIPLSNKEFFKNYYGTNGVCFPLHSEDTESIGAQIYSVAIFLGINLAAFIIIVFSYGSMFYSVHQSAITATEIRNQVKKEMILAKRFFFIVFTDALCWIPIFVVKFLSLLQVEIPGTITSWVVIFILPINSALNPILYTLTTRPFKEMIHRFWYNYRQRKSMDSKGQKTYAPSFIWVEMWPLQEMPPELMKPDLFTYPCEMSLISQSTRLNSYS
# Procedure: RXFP1 Cyclic Adenosine Monophosphate (cAMP) Assays. Human embryonic kidney cells 293 (HEK293) cells and HEK293 cells stably expressing human RXFP1, were cultured in MEM medium supplemented with 10% qualified FBS, and 300 μg/ml hygromycin (Life Technologies). Cells were dissociated and suspended in assay buffer. The assay buffer was HBSS buffer (with calcium and magnesium) containing 20 mM HEPES, 0.05% BSA, and 0.5 mM IBMX. Cells (3000 cells per well, except 1500 cell per well for HEK293 cells stably expressing human RXFP1) were added to 384-well Proxiplates (Perkin-Elmer). Cells were immediately treated with test compounds in DMSO (2% final) at final concentrations in the range of 0.010 nM to 50 μM. Cells were incubated for 30 min at room temperature. The level of intracellular cAMP was determined using the HTRF HiRange cAMP assay reagent kit (Cisbio) according to manufacturer's instructions. Solutions of cryptate conjugated anti-cAMP and d2 fluorophore-labelled cAMP were made in a supplied lysis buffer separately. Upon completion of the reaction, the cells were lysed with equal volume of the d2-cAMP solution and anti-cAMP solution. After a 1 h room temperature incubation, time-resolved fluorescence intensity was measured using the Envision (Perkin-Elmer) at 400 nm excitation and dual emission at 590 nm and 665 nm. A calibration curve was constructed with an external cAMP standard at concentrations ranging from 2.7 μM to 0.1 μM by plotting the fluorescent intensity ratio from 665 nm emission to the intensity from the 590 nm emission against cAMP concentrations. The potency and activity of a compound to […] cAMP production was then determined by fitting to a 4-parametric logistic equation from a plot of cAMP level versus compound concentrations.
# The examples disclosed below were tested in the human RXFP1 (hRXFP1) HEK293 cAMP assay described above and found to have agonist activity. Tables 1-3, lists EC50 values in the hRXFP1 HEK293 cAMP assay measured for the examples.
# [1] = intravenous (IV) formulation; cited from earlier work
# [2] = phenylcyclohexyl (tetraline) examples
compound,measurement,setting,value
"COc1ccc(-c2cc([C@H](OC(=O)NC3CCC3)C(F)(F)F)ccc2F)cc1C(=O)Nc1cc2c(cc1C(=O)Nc1ccc(F)c(C(F)(F)F)c1)CCCC2=O [Example 17, (S)-2,2,2-trifluoro-1-(6-fluoro-3′-((3-(4-fluoro-3-(trifluoromethyl)phenyl)carbamoyl)-8-oxo-5,6,7,8-tetrahydronaphthalen-2-yl)carbamoyl)-4′-methoxy-[1,1′-biphenyl]-3-yl)ethyl cyclobutylcarbamate]",EC50,human RXFP1; [2],22 nM
"COc1ccc(-c2cc(C(=O)O)ccc2F)cc1C(=O)Nc1cc2c(cc1C(=O)Nc1ccc(F)c(C(F)(F)F)c1)CCCC2=O [Example 18, 6-fluoro-3′-((3-((4-fluoro-3-(trifluoromethyl)phenyl)carbamoyl)-8-oxo-5,6,7,8-tetrahydronaphthalen-2-yl)carbamoyl)-4′-methoxy-[1,1′-biphenyl]-3-carboxylic acid]",EC50,human RXFP1; [2],1100 nM
"COc1ccc(-c2cnn(CC(=O)O)c2)cc1C(=O)Nc1cc2c(cc1C(=O)Nc1ccc(F)c(C(F)(F)F)c1)CCCC2 [Example 19, 2-(4-(3-((3-((4-fluoro-3-(trifluoromethyl)phenyl)carbamoyl)-5,6,7,8-tetrahydronaphthalen-2-yl)carbamoyl)-4-methoxyphenyl)-1H-pyrazol-1-yl)acetic acid]",EC50,human RXFP1; [2],1300 nM
"COc1ccc(N2CCCS2(=O)=O)cc1C(=O)Nc1cc2c(cc1C(=O)Nc1ccc(F)c(C(F)(F)F)c1)CCCC2 [Example 20, 3-(5-(1,1-dioxidoisothiazolidin-2-yl)-2-methoxybenzamido)-N-(4-fluoro-3-(trifluoromethyl)-phenyl)-5,6,7,8-tetrahydronaphthalene-2-carboxamide]",EC50,human RXFP1; [2],2200 nM
COc1ccc(-c2cc(C(=O)O)ccc2F)cc1C(=O)Nc1cc2c(cc1C(=O)Nc1ccc(F)c(C(F)(F)F)c1)CC2 [Example 21],EC50,human RXFP1; phenylcyclobutane examples,2400 nM
"COc1ccc(-c2cc(C(NC(=O)C3CCOCC3)C(=O)O)ccc2F)cc1C(=O)Nc1cc2c(cc1C(=O)Nc1ccc(F)c(C(F)(F)F)c1)CC2 (centres unmarked) [Example 22, 2-(6-fluoro-3′-((4-((4-fluoro-3-(trifluoromethyl)phenyl)carbamoyl)bicyclo[4.2.0]octa-1,3,5-trien-3-yl)carbamoyl)-4′-methoxy-[1,1′-biphenyl]-3-yl)-2-(tetrahydro-2H-pyran-4-carboxamido)acetic acid]",EC50,human RXFP1; phenylcyclobutane examples,8 nM
"COc1ccc(-c2cc(C(O)C(=O)O)ccc2F)cc1C(=O)Nc1cc2c(cc1C(=O)Nc1ccc(F)c(C(F)(F)F)c1)CC2 (centres unmarked) [Example 23, 2-(6-fluoro-3′-((4-((4-fluoro-3-(trifluoromethyl)phenyl)carbamoyl)bicyclo[4.2.0]octa-1,3,5-trien-3-yl)carbamoyl)-4′-methoxy-[1,1′-biphenyl]-3-yl)-2-hydroxyacetic acid]",EC50,human RXFP1; phenylcyclobutane examples,660 nM
"COc1ccc(-c2cc(C(=O)O)ccc2F)cc1C(=O)Nc1cc2c(cc1C(=O)Nc1ccc(F)c(C(F)(F)F)c1)CCC2 [Example 24, 6-fluoro-3′-((6-((4-fluoro-3-(trifluoromethyl)phenyl)carbamoyl)-2,3-dihydro-1H-inden-5-yl)carbamoyl)-4′-methoxy-[1,1′-biphenyl]-3-carboxylic acid]",EC50,human RXFP1; phenylcyclopentyl examples,3440 nM
"COc1ccc(-c2cc(C(NC(=O)C3CCOCC3)C(=O)O)ccc2F)cc1C(=O)Nc1cc2c(cc1C(=O)Nc1ccc(F)c(C(F)(F)F)c1)CCC2 (centres unmarked) [Example 25, 2-(6-fluoro-3′-((6-((4-fluoro-3-(trifluoromethyl)phenyl)carbamoyl)-2,3-dihydro-1H-inden-5-yl)carbamoyl)-4′-methoxy-[1,1′-biphenyl]-3-yl)-2-(tetrahydro-2H-pyran-4-carboxamido)acetic acid]",EC50,human RXFP1; phenylcyclopentyl examples,11 nM
"COc1ccc(-c2cc(C(=O)O)ccc2F)cc1C(=O)Nc1cc2c(cc1C(=O)Nc1ccc(F)c(C(F)(F)F)c1)CCC2=O [Example 26, 6-fluoro-3′-((6-((4-fluoro-3-(trifluoromethyl)phenyl)carbamoyl)-3-oxo-2,3-dihydro-1H-inden-5-yl)carbamoyl)-4′-methoxy-[1,1′-biphenyl]-3-carboxylic acid]",EC50,human RXFP1; phenylcyclopentyl examples,230 nM
Serelaxin,first-phase pharmacokinetic half-life,[1],5.4 min
